Measurements reported in publication PMC4176318 (ACS Chemical Neuroscience, 2014).

Tested on: C57Bl/6J mice
Assay: Tail suspension test
Assay type: in vivo, mouse
Conditions: 10 mg/kg i.p., 30 min prior to testing, 6 min trial; saline 143.7 ± 3.3 s

SMILES | immobility in TST
COCCCC/C(=N\OCCN)c1ccc(C(F)(F)F)cc1 [fluvoxamine] | 59.0 ± 12.5 s
CN(C)CCCC1(c2ccc(F)cc2)OCc2cc(C#N)ccc21 (centres unmarked) [citalopram] | 29.7 ± 14.5 s
